ChEMBL document CHEMBL5338748, “Structure-Based Discovery of a New Selectivity-Enabling Motif for the FK506-Binding Protein 51” (J Med Chem, 2023)
Calls of active or inactive are those of the source. The calls are words filed in the database; no cut-off is given here.

Key:
[1] = biological target: T1, Peptidyl-prolyl cis-trans isomerase FKBP5 (Homo sapiens, UniProt Q13451); experiment: Binding affinity to FKBP51 (unknown origin)
T1 sequence (Q13451 whole entry): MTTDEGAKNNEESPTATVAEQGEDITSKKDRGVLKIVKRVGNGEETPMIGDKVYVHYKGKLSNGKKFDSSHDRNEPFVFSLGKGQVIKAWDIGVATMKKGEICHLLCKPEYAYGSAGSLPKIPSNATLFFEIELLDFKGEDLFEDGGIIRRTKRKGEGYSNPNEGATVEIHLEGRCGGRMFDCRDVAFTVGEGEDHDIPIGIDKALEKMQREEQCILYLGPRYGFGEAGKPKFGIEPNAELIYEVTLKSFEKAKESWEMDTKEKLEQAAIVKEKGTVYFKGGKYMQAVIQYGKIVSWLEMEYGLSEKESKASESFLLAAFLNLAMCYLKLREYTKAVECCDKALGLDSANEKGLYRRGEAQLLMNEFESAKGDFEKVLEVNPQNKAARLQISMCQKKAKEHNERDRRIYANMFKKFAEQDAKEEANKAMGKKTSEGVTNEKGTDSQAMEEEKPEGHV

[2] = biological target: T1, Peptidyl-prolyl cis-trans isomerase FKBP5; experiment: Binding affinity to FKBP51 (unknown origin) assessed as inhibition constant by fluorescence polarization assay
[3] = biological target: T2, Peptidyl-prolyl cis-trans isomerase FKBP4 (Homo sapiens, UniProt Q02790); experiment: Binding affinity to FKBP52 (unknown origin) assessed as inhibition constant by fluorescence polarization assay
T2 sequence (Q02790 whole entry): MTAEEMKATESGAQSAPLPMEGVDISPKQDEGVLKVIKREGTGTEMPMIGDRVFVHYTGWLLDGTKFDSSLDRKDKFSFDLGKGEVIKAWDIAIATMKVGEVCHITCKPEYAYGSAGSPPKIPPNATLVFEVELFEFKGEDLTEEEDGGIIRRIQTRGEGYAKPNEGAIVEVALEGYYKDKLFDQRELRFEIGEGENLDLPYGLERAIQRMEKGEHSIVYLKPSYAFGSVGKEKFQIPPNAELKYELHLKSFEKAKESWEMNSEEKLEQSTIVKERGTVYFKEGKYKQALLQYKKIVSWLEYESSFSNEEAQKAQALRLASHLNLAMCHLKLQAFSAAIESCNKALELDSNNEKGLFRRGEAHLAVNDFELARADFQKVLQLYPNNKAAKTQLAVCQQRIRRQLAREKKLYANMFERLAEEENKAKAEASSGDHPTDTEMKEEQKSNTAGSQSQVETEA

[4] = Volume of distribution in C57BL/6 mouse at 10 mg/kg, ip measured after 6 hrs; format: ADME, organism-based; conditions: in vivo
[5] = Cmax in C57BL/6 mouse at 10 mg/kg, ip measured after 6 hrs; format: ADME, organism-based; set-up: time 6 hrs, dose 10 mg/kg, route ip; conditions: in vivo
[6] = biological target: T2, Peptidyl-prolyl cis-trans isomerase FKBP4; experiment: Inhibition of FKBP52 (unknown origin) expressed in HEK293T cells incubated for 2 hrs by NanoBRET assay; format: cell-based
[7] = Half life in C57BL/6 mouse at 10 mg/kg, ip measured after 6 hrs; format: ADME, organism-based; conditions: in vivo
[8] = Drug accumulation in C57BL/6 mouse gonadal white adipose tissue at 10 mg/kg, ip administered as single dose and measured after 6 hrs; format: ADME, organism-based; conditions: in vivo
[9] = Tmax in C57BL/6 mouse at 10 mg/kg, ip measured after 6 hrs; format: ADME, organism-based; conditions: in vivo
[10] = Drug penetration in C57BL/6 mouse brain at 10 mg/kg, ip administered as single dose and measured after 6 hrs; format: ADME, organism-based; conditions: in vivo
[11] = biological target: T1, Peptidyl-prolyl cis-trans isomerase FKBP5; experiment: Inhibition of FKBP51 (unknown origin) expressed in HEK293T cells incubated for 2 hrs by NanoBRET assay; format: cell-based
[12] = biological target: Transient receptor potential cation channel subfamily V member 1 (Mus musculus) (UniProt Q704Y3); experiment: Desensitization of TRPV1 in naive C57BL/Nrj mouse dorsal root ganglion primary sensory neurons assessed as reduction in capsaicin-stimulated calcium influx at 1 uM preincubated for 2 mins followed by capsaicin stimulation and measured after 20 secs relative to control; format: tissue-based; set-up: scale not given: the % may be the effect or the level left; conditions: Primary sensory neuron, time 140.0 sec
[13] = biological target: Transient receptor potential cation channel subfamily V member 1 (Mus musculus) (UniProt Q704Y3); experiment: Desensitization of TRPV1 in C57BL/Nrj mouse dorsal root ganglion primary sensory neurons assessed as reduction in capsaicin-stimulated calcium influx at 0.5 uM preincubated for 2 mins followed by capsaicin stimulation and measured after 20 secs; format: tissue-based; conditions: Primary sensory neuron, time 140.0 sec

Sequence of Transient receptor potential cation channel subfamily V member 1 (Mus musculus) (Q704Y3 whole entry): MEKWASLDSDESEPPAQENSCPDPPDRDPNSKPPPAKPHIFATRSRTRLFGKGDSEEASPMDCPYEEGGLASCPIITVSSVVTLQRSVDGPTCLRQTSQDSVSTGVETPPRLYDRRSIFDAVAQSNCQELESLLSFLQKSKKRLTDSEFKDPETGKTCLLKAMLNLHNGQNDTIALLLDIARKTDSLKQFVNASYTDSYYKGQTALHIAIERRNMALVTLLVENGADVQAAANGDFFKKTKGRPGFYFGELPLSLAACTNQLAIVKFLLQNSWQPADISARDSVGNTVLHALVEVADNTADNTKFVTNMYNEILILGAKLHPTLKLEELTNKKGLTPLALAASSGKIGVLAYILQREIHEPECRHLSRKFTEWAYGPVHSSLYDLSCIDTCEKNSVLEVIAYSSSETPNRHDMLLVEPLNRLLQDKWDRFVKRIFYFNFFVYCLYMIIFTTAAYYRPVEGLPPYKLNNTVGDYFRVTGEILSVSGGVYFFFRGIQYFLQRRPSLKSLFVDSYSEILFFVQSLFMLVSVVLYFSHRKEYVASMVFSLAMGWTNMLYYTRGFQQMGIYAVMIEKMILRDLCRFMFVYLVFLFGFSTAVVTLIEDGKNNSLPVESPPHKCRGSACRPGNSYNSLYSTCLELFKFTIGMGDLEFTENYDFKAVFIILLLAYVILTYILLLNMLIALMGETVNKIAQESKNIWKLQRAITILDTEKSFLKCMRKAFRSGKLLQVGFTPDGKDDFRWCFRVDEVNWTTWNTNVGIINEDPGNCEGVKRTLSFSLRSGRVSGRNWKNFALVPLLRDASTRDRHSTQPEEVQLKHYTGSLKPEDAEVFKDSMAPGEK

Row | SMILES | Ki [2] | Ki [3] | also measured
1 | COc1ccc(CC[C@H]2OC(=O)[C@@H]3CCCCN3C(=O)[C@@H](C3CCCCC3)NC(=O)C3(CC3)NC(=O)COc3cccc2c3)cc1OC |  |  | Ki [1]: 400 nM
2 | CC[C@@H](C(=O)N1CCCC[C@H]1C(=O)O[C@H](CCc1ccc(OC)c(OC)c1)c1cccc(OCC(=O)O)c1)c1ccc(Cl)s1 | 210 nM | > 10000 nM | 
3 | COc1ccc(CC[C@@H](OC(=O)[C@@H]2CCCCN2C(=O)[C@@H](c2ccsc2)c2cc(OC)c(OC)c(OC)c2)c2cccc(OCC(=O)O)c2)cc1OC | 140 nM | 18000 nM | 
4 | COc1ccc(CC[C@@H](OC(=O)[C@@H]2CCCCN2C(=O)[C@H](c2cc(OC)c(OC)c(OC)c2)c2ccc(C)s2)c2cccc(OCC(=O)O)c2)cc1OC | 7 nM | 1030 nM | 
5 | COc1ccc(CC[C@@H](OC(=O)[C@@H]2CCCCN2C(=O)C(c2cccs2)C2CCCCC2)c2cccc(OCC(=O)O)c2)cc1OC (stereo partly specified) | 442 nM | > 30000 nM | 
6 | COc1ccc(CC[C@@H](OC(=O)[C@@H]2CCCCN2C(=O)[C@H](c2cc(OC)c(OC)c(OC)c2)C2CCCCC2)c2cccc(OCC(=O)O)c2)cc1OC | 6 nM | 3860 nM | 
7 | CCc1ccc([C@H](C(=O)N2CCCC[C@H]2C(=O)O[C@H](CCc2ccc(OC)c(OC)c2)c2cccc(OCC(=O)O)c2)c2cc(OC)c(OC)c(OC)c2)s1 | 13 nM | > 1000 nM | 
8 | COc1ccc(CC[C@@H](OC(=O)[C@@H]2CCCCN2C(=O)[C@H](c2cc(OC)c(OC)c(OC)c2)c2cccs2)c2cccc(OCC(=O)O)c2)cc1OC | 103 nM | 10200 nM | 
9 | COc1ccc(CCC(OC(=O)C2CCCCN2C(=O)[C@H](c2cc(OC)c(OC)c(OC)c2)c2ccc(Cl)s2)c2cccc(OCCN3CCOCC3)c2)cc1OC (single isomer, unassigned) | 19 nM | 774 nM | Vd [4]: 0.3 L; Cmax [5]: 990 ng/mL; IC50 [6]: 2900 nM; half-life [7]: 4.3 h; Drug uptake [8]: Active; Tmax [9]: 0.5 h; Drug uptake [10]: Active; IC50 [11]: 584 nM; Activity [12]: 50%
10 | COc1ccc(CCC(OC(=O)C2CCCCN2C(=O)[C@H](c2cc(OC)c(OC)c(OC)c2)c2ccc(C)s2)c2cccc(OCCN3CCOCC3)c2)cc1OC (single isomer, unassigned) | 17 nM | 775 nM | Activity [13]: Active; IC50 [11]: 613 nM; Activity [12]: 50%
11 | COc1ccc(CC[C@@H](OC(=O)[C@@H]2CCCCN2C(=O)[C@H](c2cc(OC)c(OC)c(OC)c2)c2ccc(C#N)s2)c2cccc(OCC(=O)O)c2)cc1OC | 23 nM | 2730 nM | 
12 | COc1ccc(CC[C@@H](OC(=O)[C@@H]2CCCCN2C(=O)[C@H](c2cc(OC)c(OC)c(OC)c2)c2ccc(Br)s2)c2cccc(OCC(=O)O)c2)cc1OC | 7 nM | 436 nM | 
13 | COc1ccc(CC[C@@H](OC(=O)[C@@H]2CCCCN2C(=O)[C@H](c2cc(OC)c(OC)c(OC)c2)c2ccc(C3CC3)s2)c2cccc(OCC(=O)O)c2)cc1OC | 41 nM | > 1000 nM | 
14 | COc1ccc(CC[C@@H](OC(=O)[C@@H]2CCCCN2C(=O)[C@@H](CN2CCOCC2)c2cc(OC)c(OC)c(OC)c2)c2cccc(OCC(=O)O)c2)cc1OC | 8 nM | 2160 nM | Vd [4]: 0.1 L; Cmax [5]: 3060 ng/mL; IC50 [6]: 3180 nM; half-life [7]: 3.7 h; Tmax [9]: 1 h; IC50 [11]: 196 nM
15 | COc1ccc(CC[C@@H](OC(=O)[C@@H]2CCCCN2C(=O)[C@@H](c2ccccc2)c2cc(OC)c(OC)c(OC)c2)c2cccc(OCC(=O)O)c2)cc1OC | 118 nM | 43800 nM | 
16 | COc1ccc(CC[C@@H](OC(=O)[C@@H]2CCCCN2C(=O)[C@H](c2cc(OC)c(OC)c(OC)c2)c2ccc(Cl)s2)c2cccc(OCC(=O)O)c2)cc1OC | 4 nM | 950 nM | 
17 | COc1ccc(CC[C@H]2OC(=O)[C@@H]3CCCCN3C(=O)[C@@H](C3CCCCC3)c3cc(OC)c(OC)c(c3)OC[C@H](O)[C@H](O)COc3cccc2c3)cc1OC |  |  | Ki [1]: 5 nM
18 | COc1ccc(CC[C@@H](OC(=O)[C@@H]2CCCCN2C(=O)[C@H](C)c2ccc(Cl)s2)c2cccc(OCC(=O)O)c2)cc1OC | 300 nM | > 50000 nM | 
19 | C=CC[C@@H](C(=O)N1CCCC[C@H]1C(=O)O[C@H](CCc1ccc(OC)c(OC)c1)c1cccc(OCC(=O)O)c1)c1ccc(Cl)s1 | 223 nM | > 10000 nM | 
20 | COc1ccc(CC[C@@H](OC(=O)[C@@H]2CCCCN2C(=O)C(c2ccc(Cl)s2)C2CCCCC2)c2cccc(OCC(=O)O)c2)cc1OC (stereo partly specified) | 154 nM | > 10000 nM | 
